Laboratory results reported in ChEMBL document CHEMBL1255503, “Biochemical and biophysical characterization of unique switch pocket inhibitors of p38α” (Bioorg Med Chem Lett, 2010).

Legend:
[1] = target: T1, Mitogen-activated protein kinase 14 (Homo sapiens, UniProt Q16539)
Description: Binding affinity to full-length GST-tagged p38alpha after 2.5 hrs by TR-FRET competition binding assay

[2] = target: T1, Mitogen-activated protein kinase 14; remark: listed apart in the source
Description: Binding affinity to full-length GST-tagged p38alpha by surface plasmon resonance assay

T1 sequence (Q16539 whole entry): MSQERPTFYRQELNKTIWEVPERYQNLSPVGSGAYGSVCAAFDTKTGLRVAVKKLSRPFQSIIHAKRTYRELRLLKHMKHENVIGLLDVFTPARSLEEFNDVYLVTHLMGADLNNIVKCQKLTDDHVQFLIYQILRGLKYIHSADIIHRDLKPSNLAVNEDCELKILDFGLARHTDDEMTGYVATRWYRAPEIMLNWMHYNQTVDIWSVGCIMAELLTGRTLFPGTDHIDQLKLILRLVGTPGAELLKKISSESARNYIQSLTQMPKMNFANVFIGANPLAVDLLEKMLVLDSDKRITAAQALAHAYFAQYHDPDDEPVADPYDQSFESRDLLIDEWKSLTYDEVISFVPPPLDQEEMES

| Structure (SMILES) | Ki [1] | Kd [2] |
| --- | --- | --- |
| Cc1ccc(-n2nc(C(C)(C)C)cc2NC(=O)Nc2cccc3ccccc23)cc1C(=O)NCc1ccncn1 | 327 nM |  |
| Cc1ccc(-n2nc(C(C)(C)C)cc2NC(=O)Nc2cccc3ccccc23)cc1C(=O)NCCCN1CCOCC1 | 291 nM |  |
| Cc1ccc(-n2nc(C(C)(C)C)cc2NC(=O)Nc2cccc3ccccc23)cc1C(=O)N(CCCN)C1CCCCC1 | 89 nM |  |
| Cc1ccc(-n2nc(C(C)(C)C)cc2NC(=O)Nc2cccc3ccccc23)cc1C(=O)NCCN1CCN(C)CC1 | 140 nM |  |
| COCCCN1CCC(NC(=O)c2cc(-n3nc(C(C)(C)C)cc3NC(=O)Nc3cccc4ccccc34)ccc2C)CC1 | 336 nM |  |
| Cc1ccc(-n2nc(C(C)(C)C)cc2NC(=O)Nc2cccc3ccccc23)cc1C(=O)NCCNc1ccccc1 | 433 nM |  |
| Cc1ccc(-n2nc(C(C)(C)C)cc2NC(=O)Nc2cccc3ccccc23)cc1C(=O)NCC(CC(C)C)C(N)=O (stereo not drawn) | 786 nM |  |
| Cc1ccc(-n2nc(C(C)(C)C)cc2NC(=O)Nc2cccc3ccccc23)cc1C(=O)NC1CCN(CCN2CCOCC2)CC1 | 885 nM |  |
| COc1ccccc1CCNC(=O)c1cc(-n2nc(C(C)(C)C)cc2NC(=O)Nc2cccc3ccccc23)ccc1C | > 3900 nM |  |
| COc1ccc(CCNC(=O)c2cc(-n3nc(C(C)(C)C)cc3NC(=O)Nc3cccc4ccccc34)ccc2C)cc1 | > 3900 nM |  |
| Cc1ccc(-n2nc(C(C)(C)C)cc2NC(=O)Nc2cccc3ccccc23)cc1C(=O)N[C@@H]1CS(=O)(=O)C[C@H]1O | 112 nM |  |
| Cc1ccc(-n2nc(C(C)(C)C)cc2NC(=O)Nc2cccc3ccccc23)cc1C(=O)NCC#N | 252 nM | 55 nM |
| Cc1ccc(-n2nc(C(C)(C)C)cc2NC(=O)Nc2cccc3ccccc23)cc1C(=O)NCCCN1CCCC1 | 301 nM |  |
| Cc1ccc(-n2nc(C(C)(C)C)cc2NC(=O)Nc2cccc3ccccc23)cc1C(=O)N(CCCN)C(C)C | 312 nM |  |
| Cc1ccc(-n2nc(C(C)(C)C)cc2NC(=O)Nc2cccc3ccccc23)cc1C(=O)NC[C@@H](CO)C(C)C | 471 nM |  |
| CCN(CCN(C)C)C(=O)c1cc(-n2nc(C(C)(C)C)cc2NC(=O)Nc2cccc3ccccc23)ccc1C | 735 nM |  |
| Cc1ccc(-n2nc(C(C)(C)C)cc2NC(=O)Nc2cccc3ccccc23)cc1C(=O)NCCC1=CCCCC1 | > 3900 nM |  |
